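96-well plates; 48 h exposure; 5 concentrations. Endpoints by linear interpolation between flanking doses. Not reached: highest tested concentration assigned. GI50: concentration for 50% inhibition of growth.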 Activity calls are given as the source filed them. No stated cut-off is given here; in the data, active = GI50 up to about 1.1 µM and inactive = higher.
How the values were obtained:
Assay in all cases: NCI-60 cell line screen, 48 h
MDA-N = tested on: MDA-N
SNB-75 = tested on: SNB-75
M14 = tested on: M14
OVCAR-4 = tested on: OVCAR-4
SK-OV-3 = tested on: SK-OV-3
HL-60 = tested on: HL-60
DU-145 = tested on: DU-145
SF-268 = tested on: SF-268
Hs-578T = tested on: Hs-578T
HOP-62 = tested on: HOP-62
MDA-MB-231 = tested on: MDA-MB-231
UO-31 = tested on: UO-31
A498 = tested on: A498
UACC-257 = tested on: UACC-257
BT-549 = tested on: BT-549
NCI-H226 = tested on: NCI-H226
HCC 2998 = tested on: HCC 2998
KM12 = tested on: KM12
U-251 = tested on: U-251
SK-MEL-5 = tested on: SK-MEL-5
SF-295 = tested on: SF-295
SK-MEL-2 = tested on: SK-MEL-2
Malme-3M = tested on: Malme-3M
IGROV-1 = tested on: IGROV-1
UACC-62 = tested on: UACC-62
RXF 393 = tested on: RXF 393
T47D = tested on: T47D
CAKI-1 = tested on: CAKI-1
OVCAR-5 = tested on: OVCAR-5
SN12C = tested on: SN12C
SNB-19 = tested on: SNB-19
MOLT-4 = tested on: MOLT-4
TK-10 = tested on: TK-10
A549 = tested on: A549
PC-3 = tested on: PC-3
SK-MEL-28 = tested on: SK-MEL-28
RPMI-8226 = tested on: RPMI-8226
HCT-116 = tested on: HCT-116
EKVX = tested on: EKVX
MDA-MB-435 = tested on: MDA-MB-435
SW-620 = tested on: SW-620
OVCAR-8 = tested on: OVCAR-8
MCF7 = tested on: MCF7
CCRF-CEM = tested on: CCRF-CEM
NCI-H460 = tested on: NCI-H460
NCI-H522 = tested on: NCI-H522
LOX IMVI = tested on: LOX IMVI
HT-29 = tested on: HT-29
786-0 = tested on: 786-0
NCI-H23 = tested on: NCI-H23
ACHN = tested on: ACHN
NCI/ADR-RES = tested on: NCI/ADR-RES
K562 = tested on: K562
OVCAR-3 = tested on: OVCAR-3
COLO 205 = tested on: COLO 205
HOP-92 = tested on: HOP-92
SR = tested on: SR
HCT-15 = tested on: HCT-15

Measured: GI50

c1ccc2c(c1)[nH]c1nc3cc(-c4ccc5nc6c(nc5c4)[nH]c4ccccc46)ccc3nc12
inactive: MDA-N > 100 µM | SNB-75 > 100 µM | M14 > 100 µM | OVCAR-4 > 100 µM | SK-OV-3 > 100 µM | HL-60 20.9 µM | DU-145 > 100 µM | SF-268 > 100 µM | Hs-578T > 100 µM | HOP-62 > 93.5 µM | MDA-MB-231 > 34.5 µM | UO-31 > 100 µM | A498 > 100 µM | UACC-257 > 100 µM | BT-549 > 100 µM | NCI-H226 > 100 µM | HCC 2998 > 79.1 µM | KM12 > 100 µM | U-251 69.3 µM | SK-MEL-5 54.1 µM | SF-295 > 100 µM | SK-MEL-2 > 100 µM | Malme-3M > 100 µM | IGROV-1 > 100 µM | UACC-62 > 72.9 µM | RXF 393 > 100 µM | T47D > 100 µM | CAKI-1 > 100 µM | OVCAR-5 > 100 µM | SN12C > 100 µM | SNB-19 > 100 µM | TK-10 > 100 µM | A549 > 100 µM | PC-3 > 100 µM | SK-MEL-28 > 100 µM | RPMI-8226 38 µM | HCT-116 > 69.7 µM | EKVX > 90.4 µM | MDA-MB-435 > 100 µM | SW-620 > 100 µM | OVCAR-8 > 100 µM | MCF7 20.5 µM | CCRF-CEM 12.9 µM | NCI-H460 > 33.5 µM | NCI-H522 5.42 µM | LOX IMVI > 39.9 µM | HT-29 > 100 µM | 786-0 > 100 µM | NCI-H23 > 59 µM | ACHN > 52.8 µM
active: MOLT-4 0.166 µM

CCOC(=O)O/N=C1/C(=C2/C(=O)Nc3ccccc32)Nc2ccccc21
2.7 µM: HCT-15
inactive: MDA-N 3.91 µM | NCI/ADR-RES 4.83 µM | SNB-75 3.4 µM | M14 10.3 µM | OVCAR-4 6.4 µM | SK-OV-3 1.59 µM | HL-60 4.95 µM | DU-145 2.87 µM | K562 12.2 µM | SF-268 5.73 µM | Hs-578T 2.9 µM | HOP-62 6.81 µM | OVCAR-3 2.15 µM | MDA-MB-231 11.6 µM | UO-31 3.65 µM | A498 1.47 µM | UACC-257 10.2 µM | BT-549 7.31 µM | COLO 205 15.5 µM | HCC 2998 2.73 µM | U-251 9.14 µM | SK-MEL-5 2.37 µM | SF-295 8.73 µM | SK-MEL-2 2.29 µM | Malme-3M 10 µM | IGROV-1 4.34 µM | UACC-62 8.32 µM | RXF 393 1.24 µM | T47D 3.93 µM | CAKI-1 1.86 µM | OVCAR-5 16.5 µM | SN12C 4.41 µM | HOP-92 22.3 µM | SNB-19 18.7 µM | MOLT-4 3.74 µM | TK-10 5.35 µM | A549 4.56 µM | SK-MEL-28 10.9 µM | RPMI-8226 10.8 µM | HCT-116 3.03 µM | EKVX 2.54 µM | MDA-MB-435 4.48 µM | SW-620 5.21 µM | SR 3.61 µM | OVCAR-8 5.83 µM | MCF7 3.69 µM | CCRF-CEM 2.87 µM | NCI-H460 3.13 µM | NCI-H522 8.53 µM | LOX IMVI 4.8 µM | HT-29 10.1 µM | 786-0 5.92 µM | NCI-H23 4.47 µM | ACHN 4.41 µM
active: KM12 0.192 µM
